Measurements published in patent EP4722219A1 (Gan & Lee Pharmaceuticals Co., Ltd., priority 2023, dated 2024).
Where a chain is given by its changes, count along the chain named. Read-outs that look alike come from different tables or passages of the source.

Experiments:
[1] = target: CRBN protein (Homo sapiens, UniProt Q96SW2); assay: Binding activity to E3 ubiquitin ligase CRBN (HTRF competitive binding kit, Thalidomide-Red)
From the text: Binding activity of the E3 ligase inhibitor disclosed in the present invention to E3 ubiquitin ligase CRBN
CRBN binding activity test kit (CEREBLON BINDING KITS (PE, 64BD CRBN PEG).
The detection is based on homogeneous time-resolved fluorescence (HTRF) technology.
This kit uses a europium-labeled GST antibody (GST Eu Cryptate Antibody) as the donor and XL665-labeled thalidomide (Thalidomide-Red reagent) as the receptor. The donor binds to the GST-tagged CRBN protein.
The donor and receptor were each diluted 50-fold using the buffer provided in the kit (PROTAC binding buffer 1). The CRBN protein was diluted 45-fold. An 8mM solution of the compound disclosed herein was diluted 10-fold using the diluent provided in the kit (1X diluent), followed by 7 successive 5-fold serial dilutions of the resulting solution.
The ratio of the acceptor and donor emission signals was calculated for each individual well.
IC50 values was calculated based on compound concentration, Ratio, and coefficient of variation using GraphPad Prism.

[2] = test system: LNCaP cells; assay: Inhibition of LNCaP cell proliferation (WST-8); format: cell-based; conditions: Homo sapiens, LNCaP FGC cells, 96 hours
Experimental: The inhibitory activity of compounds disclosed in the present invention on LNCaP cell proliferation
The cells were cultured overnight in a 37°C, 5% CO2 cell incubator. […] The final concentration of the compound was 9 concentration points of 5-fold serial dilution starting from 10 µM. […] The cells were cultured in a cell culture incubator at 37°C and 5% CO2 for 96 hours. On the sixth day, the 96-well cell culture plate was removed, and 1/10 volume of WST-8 (Beytime, C0040) reagent was added to each well. The absorbance at 450 nm was detected using a microplate reader (TECAN, F50).

[3] = target: T1, AR protein (Homo sapiens, UniProt P10275); assay: AR protein degradation in VCaP cells (Western blot); format: cell-based; conditions: 8h
T1 construct: host or cells: VCaP
T1 sequence (P10275 1-920): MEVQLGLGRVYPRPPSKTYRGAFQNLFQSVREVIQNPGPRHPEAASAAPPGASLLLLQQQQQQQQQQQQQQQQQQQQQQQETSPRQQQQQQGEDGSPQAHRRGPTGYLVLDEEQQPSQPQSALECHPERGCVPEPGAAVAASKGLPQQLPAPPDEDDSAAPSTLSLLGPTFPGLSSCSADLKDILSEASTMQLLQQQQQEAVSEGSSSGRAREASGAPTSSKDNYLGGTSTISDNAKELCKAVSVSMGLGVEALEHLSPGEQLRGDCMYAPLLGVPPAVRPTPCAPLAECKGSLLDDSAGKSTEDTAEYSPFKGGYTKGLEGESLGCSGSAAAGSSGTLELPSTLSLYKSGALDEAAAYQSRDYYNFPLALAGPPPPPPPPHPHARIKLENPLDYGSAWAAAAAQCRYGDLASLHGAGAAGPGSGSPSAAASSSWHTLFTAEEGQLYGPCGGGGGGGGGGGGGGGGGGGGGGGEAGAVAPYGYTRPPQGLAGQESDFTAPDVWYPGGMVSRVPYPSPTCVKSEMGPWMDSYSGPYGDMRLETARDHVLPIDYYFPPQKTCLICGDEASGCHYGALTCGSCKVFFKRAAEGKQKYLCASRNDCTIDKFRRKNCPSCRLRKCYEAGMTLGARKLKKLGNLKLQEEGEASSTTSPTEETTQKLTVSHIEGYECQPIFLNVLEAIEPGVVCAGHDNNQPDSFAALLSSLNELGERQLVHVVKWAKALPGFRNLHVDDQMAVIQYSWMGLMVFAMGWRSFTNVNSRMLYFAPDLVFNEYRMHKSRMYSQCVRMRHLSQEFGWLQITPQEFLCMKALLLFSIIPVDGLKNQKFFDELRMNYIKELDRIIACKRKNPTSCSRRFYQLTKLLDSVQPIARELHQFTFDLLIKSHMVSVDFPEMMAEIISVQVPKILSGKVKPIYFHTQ
Experimental: The degradation activity of the compounds disclosed in the present invention on AR protein in VCaP cells (cell source: ATCC)
The AR-positive human prostate cancer cells VCaP cultured in DMEM (GiBco catalog number 11995-065) containing 10% FBS (Hyclone catalog number SH30406.05) was inoculated in a six-well microplate (Thermo catalog number 140675) at a concentration of 3×10^5 cells/ well. After being cultured overnight in a carbon dioxide incubator (ESCO), the prepared compound of the present invention and the positive control sample ARV-766 (Annaiji) solution of different concentrations were added at a volume of 1 µL/well to make the final concentrations of the compound and the positive control sample reach 5nM and 0.5nM, respectively. At the same time, the corresponding solvent control was set and cultured for 8h. After 8h of culture, the culture medium was removed, and the cells were washed with PBS. RIPA lysis buffer containing 1% Protease Inhibitor Cocktail was added. After lysis and centrifugation, a total protein extract was obtained, and the protein concentration in the extract was detected by BCA method. Protein electrophoresis was performed using SDS-PAGE, and then the protein was transferred to a PVDF (Millipore Sigma catalog number PSRP010R5) membrane at a constant voltage of 100V for 60min. The PVDF membrane was placed in a 5% milk powder 1×TBST solution and blocked at room temperature for 1h. The primary antibody solution (Anti-Androgen receptor, Cell Signaling Technology catalog number: 5153S; 1:2000 dilution) was prepared and was incubated at 4°C overnight. The primary antibody solution was discarded and the PVDF membrane was washed with 1×TBST for 5 minutes each time, for three times. The secondary antibody solution (Thermo catalog number SA5-35571; 1:7500 dilution) was prepared and was incubated at room temperature for 1 hour. The secondary antibody solution was discarded and the PVDF membrane was washed with 1×TBST for 5 minutes each time, for three times. A dual-color infrared laser imaging system (Licor catalog number Odyssey CLX) was used for Western membrane imaging. Image Studio software was used to analyze the grayscale of the bands. GAPDH protein bands were also detected for each sample as the reference. The AR protein degradation rate of the compound and the positive control sample was calculated based on the grayscale of the protein bands.
Table 7 Degradation rate of AR protein in VCaP cells by the compounds disclosed in the present invention

[4] = test system: VCaP cells; assay: Inhibition of VCaP cell proliferation (WST-8); format: cell-based; conditions: Homo sapiens, 168 hours
Experimental: On the first day of the experiment, VCaP cells were seeded at a density of 15,000 cells/well in a 96-well plate using DMEM medium containing 10% fetal bovine serum, with 100µL of cell suspension per well, and cultured overnight in a cell incubator at 37°C and 5% CO2. On the second day, 100µL of the compound of the present invention and the positive control ARV-110 (source: Anaiji) prepared in culture medium at different concentrations were added to each well. The final concentration of the compound was 9 concentration points of 5-fold serial dilution starting from 10 µM. […] On the ninth day, the 96-well cell culture plate was removed and 1/10 volume of WST-8 (Beytime, C0040) reagent was added to each well. The absorbance at 450nm was measured using a microplate reader (TECAN, F50).

[5] = target: T2, AR protein (Homo sapiens, UniProt P10275, T878A); assay: AR protein degradation in LNCaP cells (Western blot); format: cell-based; conditions: 8 hours; for percent AR protein degradation at a fixed concentration at 0.01 µM: 10 nM; for percent AR protein degradation at a fixed concentration at 0.1 µM: 100 nM
T2 construct: host or cells: LNCaP FGC
T2 sequence (P10275 1-920 T878A): T1 sequence (P10275 1-920) with T878A
Outline: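 AR degradation rate derived from Western blot band densitometry, referenced to GAPDH, using total lysates of LNCaP cells treated 8 h with compound versus solvent control. Detection used infrared dual-color imaging after SDS-PAGE and PVDF transfer.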

[6] = competition with XL665-labeled thalidomide for GST-tagged CRBN protein, HTRF, 3 hours at room temperature, read-out: IC50

Row | IC50 [1, 6] | Structure (SMILES) | IC50 [2] | IC50 [4] | also measured
1 | 0.55 µM | Cn1c(=O)n(C2CCC(=O)NC2=O)c2ccc3c(c21)OC[C@H]1CNCCN31 (stereo in doubt) [Compound D6, 3-((R)-3-Methyl-2-oxo-2,3,5,5a,6,7,8,9-octahydro-1H-imidazo[4',5':5,6]benzo[1,2-b]pyrazino[1,2-d][1,4]oxazine-1-yl)piperidine-2,6-dione] | – | – | –
2 | 15.5 µM | O=C1CC[C@H](NC(=O)c2ccc3c(c2F)OCC32CCNCC2)C(=O)N1 [Compound A1, (S)-N-(2,6-dioxopiperidin-3-yl)-7-fluoro-2H-spiro[benzofuran-3,4'-piperidine]-6-carboxamide] | – | – | –
3 | 11.9 µM | O=C1CC[C@H](NC(=O)c2c(F)ccc3c2OCC32CCNCC2)C(=O)N1 [Compound A2, (S)-N-(2,6-dioxopiperidin-3-yl)-6-fluoro-2H-spiro[benzofuran-3,4'-piperidine]-7-carboxamide] | – | – | –
4 | 52.8 µM | O=C1CC[C@H](NC(=O)c2cc3c(cc2F)OCC32CCNCC2)C(=O)N1 [Compound A3, (S)-N-(2,6-dioxopiperidin-3-yl)-6-fluoro-2H-spiro[benzofuran-3,4'-piperidine]-5-carboxamide] | – | – | –
5 | 23.5 µM | O=C1CC[C@H](NC(=O)c2cc3c(cc2F)C2(CCNCC2)CO3)C(=O)N1 [Compound A4, (S)-N-(2,6-dioxopiperidin-3-yl)-5-fluoro-2H-spiro[benzofuran-3,4'-piperidine]-6-carboxamide] | – | – | –

More lines, now with the values behind:

Row | Structure (SMILES) | IC50 [1, 6] | IC50 [2] | IC50 [4] | also measured
6 | COc1cc(O[C@H]2C(C)(C)[C@H](NC(=O)c3ccc(N4CCC(CN5CCN6c7ccc(C(=O)N[C@H]8CCC(=O)NC8=O)cc7OC[C@H]6C5)CC4)cc3)C2(C)C)ccc1C#N [A-P-74, (R)-3-((1-(4-(((1R,3R)-3-(4-cyano-3-methoxyphenoxy)-2,2,4,4-tetramethylcyclobutyl)carbamoyl)phenyl)piperidin-4-yl)methyl)-N-((S)-2,6-dioxopiperidin-3-yl)-1,2,3,4,4a,5-hexahydrobenzo[b]pyrazi no[1,2-d][1,4]oxazine-8-carboxamide] | – | 0.5 µM | 2.16 µM | Degradation rate of AR protein in VCaP cells ([3]; 0.5 nM): 2%; Degradation rate of AR protein in VCaP cells ([3]; 5 nM): 70%
7 | COc1cc2c(cc1C(=O)N[C@H]1CCC(=O)NC1=O)C1(CCN(CC3CCN(c4ccc(N5CCC6(CC5)C[C@H](C)N(c5ccc(C#N)c(Cl)c5)C6)cc4)CC3)CC1)CO2 [A-P-81, 1'-((1-(4-((S)-2-(3-chloro-4-cyanophenyl)-3-methyl-2,8-diazaspiro[4.5]decan-8-yl)phenyl)piperidin-4-yl)methyl)-N-((S)-2,6-dioxopiperidin-3-yl)-6-methoxy-2H-spiro[benzofuran-3,4'-piperidin]-5-carboxamide] | – | 14.5 µM | 1.79 µM | percent AR protein degradation at a fixed concentration at 0.01 µM [5]: -15%; percent AR protein degradation at a fixed concentration at 0.1 µM [5]: 30%
8 | COc1cc2c(cc1C(=O)N[C@H]1CCC(=O)NC1=O)C1(CCN(CC3CCN(C(=O)c4ccc(N5CCC6(CC5)C[C@H](C)N(c5ccc(C#N)c(Cl)c5)C6)cc4)CC3)CC1)CO2 [A-P-82, 1'-((1-(4-((S)-2-(3-chloro-4-cyanophenyl)-3-methyl-2,8-diazaspiro[4.5]decan-8-yl)benzoyl)piperidin-4-yl)methyl)-N-((S)-2,6-dioxohesperidin-3-yl)-6-methoxy-2H-spiro[benzofuran-3,4'-piperidin]-5-carboxamide] | – | 15.7 µM | 0.049 µM | percent AR protein degradation at a fixed concentration at 0.01 µM [5]: 55%; percent AR protein degradation at a fixed concentration at 0.1 µM [5]: 83%
9 | O=C1CC[C@H](NC(=O)c2cc3c(cc2F)OC2(CCNCC2)CC3)C(=O)N1 [Compound A5, (S)-N-(2,6-dioxopiperidin-3-yl)-7-fluoro-spiro[2,4'-piperidine]-6-carboxamide] | – | – | – | IC50 [1]: 20.8 µM
